Blank lines part the entries; values can stand above or below the molecule they belong to. Active and inactive are the calls of the source. No cut-off for these calls is given here.
What was measured:
[1] = Induction of mitophagy in human HeLa MKYP cells treated with FCCP/oligomycin for 6 hrs and measured by FACS analysis; type: functional, cell-based
HeLa [2] = assay: Cytotoxicity against human HeLa MKYP cells assessed as percentage of DAPI-positive cells at 50 uM and measured by DAPI staining method; type: toxicity, cell-based
HeLa [3] = assay: Cytotoxicity against human HeLa MKYP cells assessed as cell death at 25 uM treated with FCCP/oliogmycin and measured DAPI staining method assay relative to control; type: toxicity, cell-based
HeLa [4] = assay: Cytotoxicity against human HeLa MKYP cells assessed as cell death at 25 uM and measured DAPI staining method assay relative to control; type: toxicity, cell-based
[5] = Ratio of highest compound concentration with no observable mitotoxicity to EC50 of compound to induce mitophagy in human HeLa MKYP cells; type: functional
[6] = molecular target: Serine/threonine-protein kinase PINK1, mitochondrial (Homo sapiens) (UniProt Q9BXM7); assay: Activation of PINK1 in human HeLa cells stably expressing YFP parkin assessed as reduction in dOTC protein accumulation and measured by ornithine carbamoyltransferase (DOTC) assay relative to control; type: cell-based; details: filed as activator
Serine/threonine-protein kinase PINK1, mitochondrial (Homo sapiens), sequence (Q9BXM7 whole entry, the tested form may be a part): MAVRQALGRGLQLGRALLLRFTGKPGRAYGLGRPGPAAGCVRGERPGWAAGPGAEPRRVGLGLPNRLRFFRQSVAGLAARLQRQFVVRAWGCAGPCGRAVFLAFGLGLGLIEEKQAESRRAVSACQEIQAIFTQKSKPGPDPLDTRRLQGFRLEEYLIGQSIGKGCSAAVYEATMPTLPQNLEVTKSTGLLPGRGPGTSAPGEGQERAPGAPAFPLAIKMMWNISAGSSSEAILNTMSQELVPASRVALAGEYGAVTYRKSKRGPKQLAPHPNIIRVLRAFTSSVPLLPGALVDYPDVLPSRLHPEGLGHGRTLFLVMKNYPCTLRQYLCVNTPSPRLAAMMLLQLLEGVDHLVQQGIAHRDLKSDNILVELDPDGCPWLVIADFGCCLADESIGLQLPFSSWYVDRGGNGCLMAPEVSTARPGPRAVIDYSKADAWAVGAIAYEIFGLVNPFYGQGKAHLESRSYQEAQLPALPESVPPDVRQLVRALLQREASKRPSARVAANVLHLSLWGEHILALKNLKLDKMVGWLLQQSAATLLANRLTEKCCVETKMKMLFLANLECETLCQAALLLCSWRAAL

[7] = molecular target: Serine/threonine-protein kinase PINK1, mitochondrial (Homo sapiens) (UniProt Q9BXM7); assay: Activation of PINK1 in human HeLa MKYP cells expressing PINK1 treated with FCCP/oilgomycin assessed as increase in pS65 Ub and measured by ELISA assay; type: cell-based; details: filed as activator
[8] = molecular target: Serine/threonine-protein kinase PINK1, mitochondrial (Homo sapiens) (UniProt Q9BXM7); assay: Activation of PINK1 in human HeLa MKYP PINK1-knock out cells treated with FCCP/oilgomycin assessed as increase in pS65 Ub and measured by ELISA assay; type: cell-based
[9] = molecular target: Serine/threonine-protein kinase PINK1, mitochondrial (Homo sapiens) (UniProt Q9BXM7); assay: Activation of PINK1 in human HeLa MKYP cells expressing PINK1 treated with FCCP/oilgomycin assessed as increase in parkin recruitment and measured by ELISA assay; type: cell-based; details: filed as activator
[10] = molecular target: Serine/threonine-protein kinase PINK1, mitochondrial (Homo sapiens) (UniProt Q9BXM7); assay: Activation of PINK1 in human HeLa MKYP PINK1-knock out cells treated with FCCP/oilgomycin assessed as increase in parkin recruitment and measured by ELISA assay; type: cell-based
HeLa [11] = assay: Induction of mitophagy in human HeLa MKYP cells expressing wild-type PNIK1 treated with FCCP/oligomycin for 6 hrs and measured by FACS analysis; type: functional, cell-based
HeLa [12] = assay: Induction of mitophagy in human HeLa MKYP PINK1-knockout cells treated with FCCP/oligomycin for 6 hrs and measured by FACS analysis; type: functional, cell-based
[13] = molecular target: Serine/threonine-protein kinase PINK1, mitochondrial (Homo sapiens) (UniProt Q9BXM7); assay: Activation of PINK1 in human iPSC derived neurons at 3.1 to 6.2 uM assessed as reduction in pS129 alpha-synuclein; type: cell-based; details: Neuron, filed as activator, dose 3.1-6.2 µM
[14] = molecular target: Serine/threonine-protein kinase PINK1, mitochondrial (Homo sapiens) (UniProt Q9BXM7); assay: Activation of PINK1 in human HeLa MKYP PINK1-knock out cells at 3.125 to 6.25 uM assessed as reduction in pS129 alpha-synuclein; type: cell-based; details: dose 3.125-6.25 µM
Mus musculus [15] = assay: Protection against preformed alpha-synuclein amyloid fibril (PFF) in C57BL/6 mouse model assessed as decrease in C-terminal truncation of alpha-synuclein in ipsilateral striatum at 5 to 50 mg/kg, po administered daily for 28 days; type: functional, organism-based; details: dose 5-50 mg/kg, time 28.0 day
Mus musculus [16] = assay: Protection against preformed alpha-synuclein amyloid fibril (PFF) in C57BL/6 mouse model assessed as decrease in pS129 monomer of alpha-synuclein in ipsilateral striatum at 5 to 50 mg/kg, po administered daily for 28 days; type: functional, organism-based; details: dose 5-50 mg/kg, time 28.0 day
Mus musculus [17] = assay: Protection against preformed alpha-synuclein amyloid fibril (PFF) in C57BL/6 mouse model assessed as decrease in total monomer of alpha-synuclein in ipsilateral striatum at 5 to 50 mg/kg, po administered daily for 28 days; type: functional, organism-based; details: dose 5-50 mg/kg, time 28.0 day
Mus musculus [18] = assay: Protection against preformed alpha-synuclein amyloid fibril (PFF) in C57BL/6 mouse model assessed as decrease in all species of alpha-synuclein in ipsilateral striatum at 5 to 50 mg/kg, po administered daily for 28 days; type: functional, organism-based; details: dose 5-50 mg/kg, time 28.0 day
Mus musculus [19] = assay: Protection against preformed alpha-synuclein amyloid fibril (PFF) in C57BL/6 mouse model assessed as decrease in all species of alpha-synuclein in contralateral striatum at 5 to 50 mg/kg, po administered daily for 28 days; type: functional, organism-based; details: dose 5-50 mg/kg, time 28.0 day
Mus musculus [20] = assay: Protection against preformed alpha-synuclein amyloid fibril (PFF) in C57BL/6 mouse model assessed as decrease in all species of alpha-synuclein in ventral midbrain at 5 to 50 mg/kg, po administered daily for 28 days; type: functional, organism-based; details: dose 5-50 mg/kg, time 28.0 day
Mus musculus [21] = assay: Protection against cisplatin-induced mitochondrial dysfunction in mouse assessed as decrease in GDF15 expression at 20 to 50 mg/kg, po administered daily; type: functional, organism-based; details: dose 20-50 mg/kg

EC50 [1]: 18.5 µM
SMILES: O[C@H]1Cc2ccccc2[C@@H]1Nc1ncnc2[nH]c(C(F)(F)F)cc12
Activity (HeLa [2]): 14.4% | Activity (HeLa [3]): 14.4% | Activity (HeLa [4]): 2.51% | Ratio [5]: 1.35

EC50 [1]: 6.3 µM
SMILES: FC(F)(F)c1cc2c(N[C@@H]3CCOc4ccccc43)ncnc2[nH]1
Activity (HeLa [2]): 21.1% | Activity (HeLa [3]): 21% | Activity (HeLa [4]): 3.04% | Ratio [5]: 8.85

EC50 [1]: 1.8 µM
SMILES: CC[C@@H]1CCc2ccccc2[C@@H]1Nc1ncnc2[nH]c(C(F)(F)F)cc12
Activity (HeLa [2]): 8.7% | Activity (HeLa [3]): 8.735% | Activity (HeLa [4]): 5.04% | Ratio [5]: 13.8

Activity [6]: Active | Activity [7]: Active | Activity [8]: inactive | Activity [9]: Active | Activity [10]: inactive | Activity [13]: Active | Activity [14]: inactive
SMILES: FC(F)(F)c1cc2c(NC3CCCc4ccccc43)ncnc2[nH]1 (stereo in doubt)
Activity (HeLa [11]): Active | Activity (HeLa [12]): inactive | Activity (Mus musculus [15]): Active | Activity (Mus musculus [16]): Active | Activity (Mus musculus [17]): Active | Activity (Mus musculus [18]): Active | Activity (Mus musculus [19]): Active | Activity (Mus musculus [20]): Active | Activity (Mus musculus [21]): Active

Reference: ChEMBL document CHEMBL5050850, “Compositions and methods of using the same for treatment of neurodegenerative and mitochondrial disease” (2020)
